For three compounds, melting point results are on record in patent US6569860B2, “Alkoxycarbonylamino heteroaryl carboxylic acid derivatives as IP antagonists” (Roćhe Palo Alto LLC, priority 2001, dated 2003).

On to `O=C(Nc1cnc(-c2ccccc2)nc1C(=O)O)OCc1cc2cc(-c3ccccc3)ccc2o1` [Example 1, 2-Phenyl-5-(5-phenyl-benzofuran-2-ylmethoxycarbonylamino)-pyrimidine-4-carboxylic Acid], for which the melting point (commonly the temperature of the solid-liquid transition) lay in the range of 184 to 185 °C.
For the compound `O=C(Nc1nn(-c2ccccc2)cc1C(=O)O)OCc1cc2cc(-c3ccccc3)ccc2o1` [Example 2, 1-Phenyl-3-(5-phenyl-benzofuran-2-ylmethoxycarbonylamino)-1H-pyrazole-4-carboxylic Acid], the melting point lay in the range of 220.6 to 220.8 °C.
To `O=C(Nc1cnccc1C(=O)O)OCc1cc2cc(-c3ccccc3)ccc2o1` [Example 3, 3-(5-Phenyl-benzofuran-2-ylmethoxycarbonylamino)-isonicotinic Acid] belongs 235.7 to 238.9 °C.
